What is called EC50 is the concentration needed to bring the measured effect to its halfway point. Read a low EC50 as an effect from little substance.

Structures are written as SMILES.

This is an account of results in US7173004B2, “Macrocyclic isoquinoline peptide inhibitors of hepatitis C virus” (Bristol-Myers Squibb Company, priority 2003, dated 2007).

The subject of the assay is HCV replicon (HCV 1b-377-neo replicon cells, Huh7). In words: HCV replicon cell-based FRET assay. To be noted: Hepatitis C virus, Huh-7. The method, then:
HCV Replion assays were utilized in the present invention, and were prepared, conducted and validated as follows:
An HCV replicon whole cell system was established as described by Lohmann V, Korner F, Koch J, Herian U, Theilmann L, Bartenschlager R., Science 285(5424): 110–3 (1999). This system enabled us to evaluate the effects of our HCV Protease compounds on HCV RNA replication. Briefly, using the HCV strain 1B sequence described in the Lohmann paper (Assession number: AJ238799), an HCV cDNA was synthesized by Operon Technologies, Inc. (Alameda, Calif.), and the full-length replicon was then assembled in plasmid pGem9zf(+) (Promega, Madison, Wis.) using standard molecular biology techniques. The replicon consists of (i) the HCV 5′ UTR fused to the first 12 amino acids of the capsid protein, (ii) the neomycin phosphotransferase gene (neo), (iii) the IRES from encephalomyocarditis virus (EMCV), and (iv) HCV NS3 to NS5B genes and the HCV 3′ UTR. Plasmid DNAs were linearized with ScaI and RNA transcripts were synthesized in vitro using the T7 MegaScript transcription kit (Ambion, Austin, Tex.) according to manufacturer's directions. To generate cell lines, 4×10^6 Huh-7 cells (kindly provided by R. Bartenschlager and available from Health Science Research Resources Bank, Japan Health Sciences Foundation) were electroporated (GenePulser System, Bio-Rad) with 10 microgram(“μg”) of RNA transcript and plated into 100-mm dishes. After 24 h, selective media containing 1.0 milligrams/milliliter (“mg/ml”) G418 was added and media was changed every 3 to 5 days. Approximately 4 weeks after electroporation, small colonies were visible which were isolated and expanded for further analysis. These cell lines were maintained at 37° C., 5% CO2, 100% relative humidity in DMEM (Cat# 11965-084) Gibco-BRL, Rockville, Md., with 10% heat inactivated calf serum (Sigma), 10 ml of 100× penicillin/streptomycin (Cat# 15140-122) Gibco-BRL, Rockville, Md., Geneticin (Cat# 10131-027) Gibco-BRL, Rockville, Md. at 1 mg/ml. One of the cell lines (deposited as ATCC Accession No. PTA-4583 in the American Type Culture Collection) which had approximately 3,000 copies of HCV replicon RNA/cell was used for development of the assay (HCV 1b-377-neo replicon cells).
Huh7 cells, constitutively expressing the HCV replicon, were grown in Dulbecco's Modified Eagle Media (DMEM) containing 10% Fetal calf serum (FCS) and 1 mg/ml G418 (Gibco-BRL). Cells were seeded the night before (1.5×10^4 cells/well) in 96-well tissue-culture sterile plates. Compound and no compound controls were prepared in DMEM containing 4% FCS, 1:100 Penicillin/Streptomysin, 1:100 L-glutamine and 5% DMSO in the dilution plate (0.5% DMSO final concentration in the assay). Compound/DMSO mixes were added to the cells and incubated for 4 days at 37° C. After 4 days, cells were first assessed for cytotoxicity using alamar Blue (Trek Diagnotstic Systems) for a CC50 reading. The toxicity of compound (CC50) was determined by adding 1/10th volume of alamar Blue to the media incubating the cells. After 4 hr, the fluorescence signal from each well was read, with an excitation wavelength at 530 nm and an emission wavelength of 580 nm, using the Cytofluor Series 4000 (Perspective Biosystems). Plates were then rinsed thoroughly with Phosphate-Buffered Saline (PBS) (3 times 150 μl). The cells were lysed with 25 μl of a lysis assay reagent containing an HCV protease substrate (5× cell Luciferase cell culture lysis reagent (Promega #E153A) diluted to 1× with distilled water, NaCl added to 150 mM final, the FRET peptide diluted to 10 μM final from a 2 mM stock in 100% DMSO). The HCV protease substrate (FRET peptide; AnaSpec, Inc. cat #22991, described by Taliani et al. in Anal. Biochem. 240(2):60–67 (1996)) contains a fluorescence donor, EDANS, near one end of the peptide and an acceptor, DABCYL, near the other end. […]
A general note: Replicon systems follow genome replication, usually without infectious particles.
In the case of `CCC1(S(=O)(=O)NC(=O)C23CC2C=CCCCSCC(NC(=O)NC2CCCC2)C(=O)N2CC(Oc4nccc5cc(OC)ccc45)CC2C(=O)N3)CC1` (stereo not drawn) [Compound 46], the EC50 was below 50 nM.

Turning to `COCC(=O)NC1CCCCCC=CC2CC2(C(=O)NS(=O)(=O)C2CC2)NC(=O)C2CC(Oc3nccc4ccccc34)CN2C1=O` (stereo not drawn) [Compound 24], the EC50 lay in the range of 50 to 500 nM.

Consider `CCCC1(S(=O)(=O)NC(=O)[C@@]23C[C@H]2CCCCCCC[C@H](NC(=O)OC(C)(C)C)C(=O)N2C[C@H](Oc4nccc5ccccc45)C[C@H]2C(=O)N3)CC1` [Compound 7, [18-(Isoquinolin-1-yloxy)-2,15-dioxo-4-(1-propyl-cyclopropanesulfonylaminocarbonyl)-3,16-diaza-tricyclo[14.3.0.0^4,6]nonadec-14-yl]-carbamic acid tert-butyl ester], for which the EC50 was below 50 nM.

`CC(C)(C)OC(=O)N[C@H]1CCCCCCC[C@@H]2C[C@@]2(C(=O)NS(=O)(=O)C2CC2)NC(=O)[C@@H]2C[C@@H](Oc3nccc4ccccc34)CN2C1=O` [Compound 10, [4-Cyclopropanesulfonylaminocarbonyl-18-(isoquinolin-1-yloxy)-2,15-dioxo-3,16-diaza-tricyclo[14.3.0.0^4,6]nonadec-14-yl]-carbamic acid tert-butyl ester] returned an EC50 below 50 nM.

Consider `COc1ccc2c(OC3CC4C(=O)NC5(C(=O)NS(=O)(=O)C6(C)CC6)CC5C=CCCCSCC(NC(=O)NC5CCCC5)C(=O)N4C3)nccc2c1` (stereo not drawn) [Compound 43], for which the EC50 was below 50 nM.

`COc1ccc2c(OC3CC4C(=O)NC5(C(=O)NS(=O)(=O)C6CC6)CC5C=CCCCOC(C)C(NC(=O)NC5CCCC5)C(=O)N4C3)nccc2c1` (stereo not drawn) [Compound 65] registered an EC50 below 50 nM.

Molecule `CC(C)(C)OC(=O)N[C@H]1CCCCC/C=C\[C@@H]2C[C@@]2(C(=O)NS(=O)(=O)C2CC2)NC(=O)[C@@H]2C[C@@H](Oc3nc(-c4ccccc4)cc4ccccc34)CN2C1=O` [Compound 58, [(Z)-(1S,4R,14S,18R)-4-cyclopropanesulfonylaminocarbonyl-2,15-dioxo-18-(3-phenyl-isoquinolin-1-yloxy)-3,16-diaza-tricyclo[14.3.0.0^4,6]nonadec-7-en-14-yl]-carbamic acid tert-butyl ester] displayed an EC50 below 50 nM.

Molecule `COc1ccc2c(O[C@@H]3C[C@H]4C(=O)N[C@]5(C(=O)O)C[C@H]5/C=C\CCCOC[C@H](NC(=O)OC(C)(C)C)C(=O)N4C3)nccc2c1` [Compound 84, (1S,4R,6S,14S,18R)-7-cis-14-tert-Butoxycarbonylamino-18-(6-methoxyisoquinolin-1-yloxy)-2,15-dioxo-12-oxa-3,16-diazatricyclo[14.3.0.0^4,6]-nonadec-7-ene-4-carboxylic acid] yielded an EC50 of 500 to 5000 nM.

With `CC(C)(C)COC(=O)N[C@H]1CCCCC/C=C\[C@@H]2C[C@@]2(C(=O)NS(=O)(=O)C2CC2)NC(=O)[C@@H]2C[C@@H](Oc3nccc4ccccc34)CN2C1=O` [Compound 13, [4-Cyclopropanesulfonylaminocarbonyl-18-(isoquinolin-1-yloxy)-2,15-dioxo-3,16-diaza-tricyclo[14.3.0.0^4,6]nonadec-7-en-14-yl]-carbamic acid 2,2-dimethyl-propyl ester], the EC50 was below 50 nM.

In turn, `CCCC1(S(=O)(=O)NC(=O)[C@@]23C[C@H]2/C=C\CCCCC[C@H](NC(=O)OC(C)(C)C)C(=O)N2C[C@H](Oc4nccc5ccccc45)C[C@H]2C(=O)N3)CC1` [Compound 6, [18-(Isoquinolin-1-yloxy)-2,15-dioxo-4-(1-propyl-cyclopropanesulfonylaminocarbonyl)-3,16-diaza-tricyclo[14.3.0.0^4,6]nonadec-7-en-14-yl]-carbamic acid tert-butyl ester] yielded an EC50 below 50 nM.

Turning to `CC(=O)NC1CCCCCC=CC2CC2(C(=O)NS(=O)(=O)C2CC2)NC(=O)C2CC(Oc3nccc4ccccc34)CN2C1=O` (stereo not drawn) [Compound 26], the EC50 is 50 to 500 nM.

On to `CC(C)(C)OC(=O)N[C@H]1CCCCC/C=C\[C@@H]2C[C@@]2(C(=O)NS(=O)(=O)C2CCC2)NC(=O)[C@@H]2C[C@@H](Oc3nccc4ccccc34)CN2C1=O` [Compound 9, [4-Cyclobutanesulfonylaminocarbonyl-18-(isoquinolin-1-yloxy)-2,15-dioxo-3,16-diaza-tricyclo[14.3.0.0^4,6]nonadec-7-en-14-yl]-carbamic acid tert-butyl ester], for which the EC50 was below 50 nM.

The molecule `COc1ccc2c(OC3CC4C(=O)NC5(C(=O)NS(=O)(=O)C6CC6)CC5C=CCCCCCC(NC(=O)N5CCCC5)C(=O)N4C3)nccc2c1` (stereo not drawn) [Compound 60] gave an EC50 below 50 nM.

Consider `O=C(CC1CC1)NC1CCCCCC=CC2CC2(C(=O)NS(=O)(=O)C2CC2)NC(=O)C2CC(Oc3nccc4ccccc34)CN2C1=O` (stereo not drawn) [Compound 22], for which the concentration for a half-maximal effect (EC50) is below 50 nM.

`COc1ccc2c(OC3CC4C(=O)NC5(C(=O)NS(=O)(=O)C6CC6)CC5C=CCCCOC(C)C(NC(=O)OC(C)(C)C)C(=O)N4C3)nccc2c1` (stereo not drawn) [Compound 62]: the EC50 was 50 to 500 nM.

For `COc1ccc2c(OC3CC4C(=O)NC5(C(=O)NS(=O)(=O)C6(C)CC6)CC5C=CCOCCCC(NC(=O)OC(C)C)C(=O)N4C3)nccc2c1` (stereo not drawn) [Compound 35], the EC50 is below 50 nM.

`CCC1(S(=O)(=O)NC(=O)C23CC2C=CCCCSCC(NC(=O)OC(C)C)C(=O)N2CC(Oc4nccc5cc(OC)ccc45)CC2C(=O)N3)CC1` (stereo not drawn) [Compound 44] showed an EC50 below 50 nM.

`COc1ccc2c(OC3CC4C(=O)NC5(C(=O)NS(=O)(=O)C6(C)CC6)CC5C=CCOCCCC(NC(=O)OC(C)(C)C)C(=O)N4C3)nccc2c1` (stereo not drawn) [Compound 29] came in with an EC50 below 50 nM.

`CC(C)(C)OC(=O)N[C@H]1CCCCC/C=C\[C@@H]2C[C@@]2(C(=O)NS(=O)(=O)C2CC2)NC(=O)[C@@H]2C[C@@H](Oc3nccc4ccccc34)CN2C1=O` [Compound 4, [4-Cyclopropanesulfonylaminocarbonyl-18-(isoquinolin-1-yloxy)-2,15-dioxo-3,16-diaza-tricyclo[14.3.0.0^4,6]nonadec-7-en-14-yl]-carbamic acid tert-butyl ester] showed an EC50 below 50 nM.

As to `COc1ccc2c(OC3CC4C(=O)NC5(C(=O)NS(=O)(=O)C6(C)CC6)CC5C=CCCCOC(C)C(NC(=O)OC(C)C)C(=O)N4C3)nccc2c1` (stereo not drawn) [Compound 68], the EC50 is 50 to 500 nM.

The molecule `CC(C)(C)OC(=O)N[C@H]1CN(S(=O)(=O)c2ccccc2[N+](=O)[O-])CCC/C=C\[C@@H]2C[C@@]2(C(=O)O)NC(=O)[C@@H]2C[C@@H](Oc3nccc4ccccc34)CN2C1=O` [Compound 144] came in with an EC50 of 5000 to 50000 nM.

As to `O=C(N[C@H]1CCCCC/C=C\[C@@H]2C[C@@]2(C(=O)NS(=O)(=O)C2CC2)NC(=O)[C@@H]2C[C@@H](Oc3nccc4ccccc34)CN2C1=O)O[C@H]1CCOC1` [Compound 15, [4-Cyclopropanesulfonylaminocarbonyl-18-(isoquinolin-1-yloxy)-2,15-dioxo-3,16-diaza-tricyclo[14.3.0.0^4,6]nonadec-7-en-14-yl]-carbamic acid tetrahydro-furan-3-yl ester], the EC50 is below 50 nM.

Turning to `COc1ccc2c(OC3CC4C(=O)NC5(C(=O)O)CC5C=CCCCCC(NC(=O)OC(C)(C)C)C(=O)N4C3)nccc2c1` (stereo not drawn) [Compound 143], the EC50 was in the range of 500 to 5000 nM.

As for `CCC1(S(=O)(=O)NC(=O)C23CC2C=CCCCSCC(NC(=O)OCC(C)(C)C)C(=O)N2CC(Oc4nccc5cc(OC)ccc45)CC2C(=O)N3)CC1` (stereo not drawn) [Compound 45], the EC50 is below 50 nM.
